Results published in US8329672B2, “Oral and/or topical compositions comprising prebiotics and fatty acid” (Cognis IP Management GmbH, priority 2004, dated 2012).

Key:
Lactobacterium = experiment: Stimulation of growth of lactobacilli in vitro (enumeration in human faecal homogenate culture); type: cell-based, Lactobacillus spp; conditions: human faecal homogenate in diluted WC broth, incubated up to 24 hours, control 2.8 × 10^5
Method: (§1) The stimulation of growth of microorganisms has been studied by enumerating bifidobacterium and lactobacilli in vitro in the presence of various test substances. More specifically, aliquots (1 mL) of human faecal homogenates (10 g per 100 mL diluent) were added to diluted WC broth (diluted 50:50 with 0.05M phosphate buffer) to which were added the test mixtures and a lactobacillus or bifidobacterium strain. For each of the combinations, parallel tubes were prepared with one set being inoculated with Bifidobacterium spp or Lactobacillus spp. All mixtures were then incubated for up to 24 hours and bacterial numbers enumerated.

Bifidobacterium = experiment: Stimulation of growth of Bifidobacterium in vitro (enumeration in human faecal homogenate culture); type: cell-based, Bifidobacterium spp; conditions: human faecal homogenate in diluted WC broth, incubated up to 24 hours, control 1.0 × 10^6
Method: as §1

For CLA [C5], the “Bacterial numbers (CFU/ml)” value (Lactobacterium; 1% fatty acid alone) was 4.2 × × 10^5 CFU/ml and the “Bacterial numbers (CFU/ml)” value (Bifidobacterium; 1% fatty acid alone) was 3.5 × × 10^6 CFU/ml.
For `OC[C@H]1O[C@@H](O[C@H]2[C@H](O)[C@@H](O)[C@@H](O[C@]3(CO)O[C@H](CO)[C@@H](O)[C@@H]3O)O[C@@H]2CO)[C@H](O)[C@@H](O)[C@H]1O` [C2, Lactosucrose], the “Bacterial numbers (CFU/ml)” value (Lactobacterium; 1% prebiotic alone) was 1.1 × × 10^6 CFU/ml and the “Bacterial numbers (CFU/ml)” value (Bifidobacterium; 1% prebiotic alone) was 1.1 × × 10^7 CFU/ml.
In the case of CLA-SE [C7], the “Bacterial numbers (CFU/ml)” value (Lactobacterium; 1% fatty acid alone) is reported as 4.4 × × 10^5 CFU/ml and the “Bacterial numbers (CFU/ml)” value (Bifidobacterium; 1% fatty acid alone) is reported as 2.9 × × 10^6 CFU/ml.
In the case of CLA-TG [C6], the “Bacterial numbers (CFU/ml)” value (Lactobacterium; 1% fatty acid alone) is reported as 4.4 × × 10^5 CFU/ml and the “Bacterial numbers (CFU/ml)” value (Bifidobacterium; 1% fatty acid alone) is reported as 2.1 × × 10^6 CFU/ml.
For Betaglucan [C4], the “Bacterial numbers (CFU/ml)” value (Lactobacterium; 1% prebiotic alone) was 1.1 × × 10^6 CFU/ml and the “Bacterial numbers (CFU/ml)” value (Bifidobacterium; 1% prebiotic alone) was 1.2 × × 10^7 CFU/ml.
Lactolin [C3] was tested, and the “Bacterial numbers (CFU/ml)” value (Lactobacterium; 1% prebiotic alone) was 1.5 × × 10^6 CFU/ml and the “Bacterial numbers (CFU/ml)” value (Bifidobacterium; 1% prebiotic alone) was 1.6 × × 10^7 CFU/ml.
